In assay [1] the test system is E. coli B strain. Description: MIC (MIC90) by broth microdilution, E. coli B strain expressing TEM β-lactamase variants. The assay is classed as cell-based. The note with it: for MIC: E. coli B strain, no plasmid (no TEM β-lactamase), MIC90. Here is the method: (§1) Plasmids were then transformed into BL21(DE3) cells (Intact Genomics) and DH5a cells (Life Technologies) to create strains in which β-lactamases are expressed using a native promoter.
(§2) Antibiotic resistance of the strains was determined by measuring their minimum inhibitory concentrations (MIC90's) using the broth microdilution method according to the Clinical and Laboratory Standards Institute (CLSI, formerly the NCCLS) guidelines (CLSI document M07-A9, 2012). Each well of a 96-well microtiter plate was filled with 75 μL of sterile Mueller Hinton II (MHII) media broth (Sigma). Each antibiotic was dissolved in water making a 20 mM solution, then diluted with sterile MHII media broth to […] (BP) or 288 μM (CFX). Exactly 75 μL of the compound solution was added to the first well of the microtiter plate and 2-fold serial dilutions were made down each row of the plate. Exactly 75 μL of bacterial inoculum (5×10^5 CFU/mL) was then added to each well giving a total volume of 150 μL/well and compound concentration gradients of […] (BP) and 72 μM-0.04 μM (CXF). The plate was incubated at 37° C. for 17 h, and then each well was examined for bacterial growth. The MIC90 was recorded as the lowest compound concentration required to inhibit 90% of bacterial growth as judged by turbidity of the culture media relative to a row of wells filled with a water standard. Gentamicin was included in a control row at a concentration gradient of 174 μM-0.09 μM.
A general note: Broth dilution looks for growth in wells or tubes with falling amounts of substance.

For assay [2], the system named is E. coli K-12 strain. Description: MIC (MIC90) by broth microdilution, E. coli K-12 strain expressing TEM β-lactamase variants. The note with it: for MIC: E. coli K-12 strain, no plasmid (no TEM β-lactamase), MIC90. It counts as cell-based. Here is the method: as §1, §2

In brackets after ≈: the same amount, converted by molar mass.

A word on the MIC: it is the smallest concentration in the dilution series that meets the test's criterion for growth inhibition. Consider `CO/N=C(\C(=O)N[C@@H]1C(=O)N2C(C(=O)O)=C(COC(C)=O)CS[C@H]12)c1csc(N)n1` [CFX, cefotaxime], for which the MIC in assay [1] and in assay [2] was less than 0.035 µM throughout.

As for `CC1(C)S[C@@H]2[C@H](NC(=O)Cc3ccccc3)C(=O)N2[C@H]1C(=O)O` [BP, benzylpenicillin], the MIC was less than 23 µM in assay [1] (Escherichia coli) and 50 µM (≈ 16.7 µg/mL) in assay [2] (Escherichia coli, K12STRAIN).

In the case of Gentamicin, the minimal inhibitory concentration (MIC) in assay [1] worked out at 0.68 µM; in assay [2], 0.34 µM.

B1: TEM-1: wild-type TEM β-lactamase reference (protein, UniProt P62593 24-286, looked up)
Beta-lactamase TEM: HPETLVKVKDAEDQLGARVGYIELDLNSGKILESFRPEERFPMMSTFKVLLCGAVLSRVDAGQEQLGRRIHYSQNDLVEYSPVTEKHLTDGMTVRELCSAAITMSDNTAANLLLTTIGGPKELTAFLHNMGDHVTRLDRWEPELNEAIPNDERDTTMPAAMATTLRKLLTGELLTLASRQQLIDWMEADKVAGPLLRSALPAGWFIADKSGAGERGSRGIIAALGPDGKPSRIVVIYTTGSQATMDERNRQIAEIGASLIKHW
With B1, the “BP MIC” value in assay [1] (benzylpenicillin (BP), E. coli B strain expressing the TEM variant, MIC90, 37° C., 17 h, most commonly observed value, error +/− one well) came out at 24000 µM; in assay [2] (benzylpenicillin (BP), E. coli K-12 strain expressing the TEM variant, MIC90, 37° C., 17 h) it was 24000 µM. Besides, the “CFX MIC” value is less than 0.035 µM in assay [1] (cefotaxime (CFX), E. coli B strain expressing the TEM variant, MIC90, 37° C., 17 h) and less than 0.035 µM in assay [2] (cefotaxime (CFX), E. coli K-12 strain expressing the TEM variant, MIC90, 37° C., 17 h). Moreover, the “Gentamicin MIC” value was found to be 0.68 µM in assay [1] (gentamicin (control antibiotic), E. coli B strain expressing the TEM variant, MIC90, 37° C., 17 h) and 0.17 µM in assay [2] (gentamicin (control antibiotic), E. coli K-12 strain expressing the TEM variant, MIC90, 37° C., 17 h).

For the origin of these results see patent publication US11710542B2, “Methods of protein docking and rational drug design” (priority 2016, dated 2023).
